Laboratory results from patent publication US20260138976A1 (Hoffmann-La Roche Inc., priority 2022, published 2026).

What was measured:
[1] = target: T1, DGKα (hDGKalpha(1-735)-N-His) (Homo sapiens, UniProt P23743); test: In vitro DGK inhibition assay, DGKalpha ADP Glo (in house); type: biochemical; conditions: 4 nM DGKα, 25 μM ATP, 125 uM DLG in liposomes, 1 hour reaction
T1 construct: hDGKalpha(1-735)-N-His; His (N); made in house; host or cells: Sf21 insect cells (baculovirus)
In short: (§1)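 Full-length His-tagged human DGKα (4 nM) or DGKζ (2 nM), expressed in Sf21 cells, phosphorylated 125 µM DLG in PS/PC liposomes with ATP at 25 µM (α) or 50 µM (ζ) for 1 h. ADP was measured by ADP-Glo luminescence. Compounds were tested as 11-point 1:3 series in 2% DMSO.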

[2] = target: T2, DGKζ (hDGKzeta(1-928)-N-His) (Homo sapiens, UniProt Q13574); test: In vitro DGK inhibition assay, DGKzeta ADP Glo (in house); type: biochemical; conditions: 2 nM DGKζ, 50 μM ATP, 125 uM DLG in liposomes, 1 hour reaction
T2 construct: hDGKzeta(1-928)-N-His; His (N); made in house; host or cells: Sf21 insect cells (baculovirus)
In short: as §1

[3] = tested on: primary human T-cells; test: IL2 secretion measurements (24 h, CD3-stimulated T-cells, PBS counter screen); type: cell-based; conditions: for Emax IL2 (% activation): CD3 condition, normalised to DMSO (neutral) and 20 μM reference compound A1 = 100%; for EC50: Homo sapiens, T-cell, CD3-stimulated primary human T-cells, IL2 secretion, fitted sigmoidal curve, read-out: Tcell IL2 CD3 EC50
In short: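 Expanded primary human T-cells (100k/well) were plated on anti-CD3-coated or PBS-only plates with compound in a 5–6 point dose response (top 20 or 10 μM final, 3.333-fold, 0.2% DMSO). IL-2 in 24 h supernatants was quantified by ProQuantum immunoassay or ELISA. Values were normalized to DMSO and 20 μM reference compound A1 (100%), giving EC50 and Emax.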

T2 sequence (Q13574 whole entry): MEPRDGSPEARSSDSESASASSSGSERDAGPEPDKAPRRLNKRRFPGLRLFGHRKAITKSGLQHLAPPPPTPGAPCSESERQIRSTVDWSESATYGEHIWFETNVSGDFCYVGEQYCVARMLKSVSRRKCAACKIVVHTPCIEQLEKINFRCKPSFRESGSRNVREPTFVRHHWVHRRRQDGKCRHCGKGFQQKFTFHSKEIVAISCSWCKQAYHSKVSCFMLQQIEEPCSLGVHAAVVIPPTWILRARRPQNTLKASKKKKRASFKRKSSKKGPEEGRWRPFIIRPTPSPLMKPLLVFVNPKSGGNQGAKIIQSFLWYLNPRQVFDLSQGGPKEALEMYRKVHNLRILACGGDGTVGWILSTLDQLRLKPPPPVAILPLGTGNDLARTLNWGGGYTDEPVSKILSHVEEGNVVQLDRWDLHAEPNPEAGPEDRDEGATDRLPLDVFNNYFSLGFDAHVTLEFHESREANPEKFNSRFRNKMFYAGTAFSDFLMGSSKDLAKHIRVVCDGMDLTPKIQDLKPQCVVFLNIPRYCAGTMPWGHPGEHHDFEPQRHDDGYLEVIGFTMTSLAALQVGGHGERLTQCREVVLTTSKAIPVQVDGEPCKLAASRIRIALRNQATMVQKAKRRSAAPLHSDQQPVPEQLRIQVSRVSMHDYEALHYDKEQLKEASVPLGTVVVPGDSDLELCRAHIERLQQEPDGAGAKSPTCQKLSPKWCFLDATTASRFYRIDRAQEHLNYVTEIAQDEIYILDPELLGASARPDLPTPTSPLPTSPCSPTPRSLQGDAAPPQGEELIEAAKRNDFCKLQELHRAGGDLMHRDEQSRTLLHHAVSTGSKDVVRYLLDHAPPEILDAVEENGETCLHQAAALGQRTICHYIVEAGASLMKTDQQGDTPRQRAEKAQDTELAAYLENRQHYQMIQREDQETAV
T1 sequence (P23743 whole entry): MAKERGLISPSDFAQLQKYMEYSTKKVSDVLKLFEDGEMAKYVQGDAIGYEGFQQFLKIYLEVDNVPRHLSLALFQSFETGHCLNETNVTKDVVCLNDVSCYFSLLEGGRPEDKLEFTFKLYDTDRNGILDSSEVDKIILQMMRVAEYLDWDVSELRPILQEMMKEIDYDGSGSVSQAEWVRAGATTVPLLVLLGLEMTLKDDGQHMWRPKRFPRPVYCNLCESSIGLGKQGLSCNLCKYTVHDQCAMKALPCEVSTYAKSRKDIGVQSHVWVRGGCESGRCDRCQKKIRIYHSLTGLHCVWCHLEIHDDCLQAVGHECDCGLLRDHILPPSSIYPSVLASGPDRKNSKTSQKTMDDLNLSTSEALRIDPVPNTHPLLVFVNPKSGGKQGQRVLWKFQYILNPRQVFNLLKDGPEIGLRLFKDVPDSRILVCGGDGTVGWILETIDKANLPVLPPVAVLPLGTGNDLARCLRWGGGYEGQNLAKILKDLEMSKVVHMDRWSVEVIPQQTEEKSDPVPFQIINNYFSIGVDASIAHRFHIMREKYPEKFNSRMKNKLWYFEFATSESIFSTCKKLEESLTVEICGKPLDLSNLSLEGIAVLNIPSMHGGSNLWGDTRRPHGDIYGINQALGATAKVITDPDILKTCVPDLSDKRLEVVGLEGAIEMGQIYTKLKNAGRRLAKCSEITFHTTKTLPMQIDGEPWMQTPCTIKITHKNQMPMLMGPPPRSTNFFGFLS

SMILES | IC50 [1] [nM] | IC50 [2] [nM] | Emax IL2 (% activation) [3] [% activation] | EC50 [3] [nM]
COc1ccc(-c2ccc(CN3C(=O)[C@@H](N)CS(=O)(=O)c4ccc(-c5nnc(N6CCC(F)(F)C6)o5)cc43)cc2)cc1 [Example 76, (3R)-3-amino-7-[5-(3,3-difluoropyrrolidin-1-yl)-1,3,4-oxadiazol-2-yl]-5-[[4-(4-methoxyphenyl)phenyl]methyl]-1,1-dioxo-2,3-dihydro-1λ^6,5-benzothiazepin-4-one] | 26100 | 1080 | 297 | 2640
C[C@@](N)(c1nnc(-c2ccc3c(c2)N(Cc2ccc(-n4ccc(C(F)(F)F)n4)cc2)C(=O)[C@@H](N)CS3(=O)=O)o1)C(F)(F)F [Example 157, (3R)-3-amino-7-[5-[(1R)-1-amino-2,2,2-trifluoro-1-methyl-ethyl]-1,3,4-oxadiazol-2-yl]-1,1-dioxo-5-[[4-[3-(trifluoromethyl)pyrazol-1-yl]phenyl]methyl]-2,3-dihydro-1λ^6,5-benzothiazepin-4-one] | 41400 | 2280 | 106 | 1780
CC(C)(C#N)c1nnc(-c2ccc3c(c2)N(Cc2ccc(-c4ccc(C(F)(F)F)cc4)cc2)C(=O)[C@@H](N)CS3(=O)=O)o1 [Example 46] | 16200 | 1260 | 263 | 331
CC(C)(c1nnc(-c2ccc3c(c2)N(Cc2ccc(-c4noc(C(F)(F)F)n4)cc2)C(=O)[C@@H](N)CS3(=O)=O)o1)C(F)(F)F [Example 166] | 3030 | 1720 | 385 | 158
COc1ccc(-c2ccc(CN3C(=O)[C@@H](N)CS(=O)(=O)c4ccc(-c5nnc(N(C)CC(F)(F)F)o5)cc43)cc2)cc1 [Example 81, (3R)-3-amino-5-[[4-(4-methoxyphenyl)phenyl]methyl]-7-[5-[methyl(2,2,2-trifluoroethyl)amino]-1,3,4-oxadiazol-2-yl]-1,1-dioxo-2,3-dihydro-1λ^6,5-benzothiazepin-4-one] | 38900 | 2450 | 66 | 523
Cn1ccc(-c2ccc(CN3C(=O)[C@@H](N)CS(=O)(=O)c4cc(F)c(-c5nnc(C(C)(C)C)o5)cc43)cc2)n1 [Example 1, (3R)-3-amino-7-(5-tert-butyl-1,3,4-oxadiazol-2-yl)-8-fluoro-5-[[4-(1-methylpyrazol-3-yl)phenyl]methyl]-1,1-dioxo-2,3-dihydro-1λ^6,5-benzothiazepin-4-one] | 2360 | 488 | 91 | 1310
Cc1nc(F)ccc1-c1nc(-c2ccc3c(c2)N(Cc2ccc(-c4noc(C5CC5)n4)cc2)C(=O)[C@@H](N)CS3(=O)=O)no1 [Example 86, (3R)-3-amino-5-[[4-(5-cyclopropyl-1,2,4-oxadiazol-3-yl)phenyl]methyl]-7-[5-(6-fluoro-2-methyl-3-pyridyl)-1,2,4-oxadiazol-3-yl]-1,1-dioxo-2,3-dihydro-1λ^6,5-benzothiazepin-4-one] | > 62500 | 642 | 101 | 4160
N[C@H]1CS(=O)(=O)c2ccc(-c3nnc(N4CCOC5(CC5)C4)o3)cc2N(Cc2ccc(-c3noc(C(F)(F)F)n3)cc2)C1=O [Example 77] | 48200 | 1530 | 170 | 3450
C[C@](N)(c1nnc(-c2ccc3c(c2)N(Cc2ccc(-c4noc(C(F)(F)F)n4)cc2)C(=O)[C@@H](N)CS3(=O)=O)o1)C(F)(F)F [Example 53, (3R)-3-amino-7-[5-[(1S)-1-amino-2,2,2-trifluoro-1-methyl-ethyl]-1,3,4-oxadiazol-2-yl]-1,1-dioxo-5-[[4-[5-(trifluoromethyl)-1,2,4-oxadiazol-3-yl]phenyl]methyl]-2,3-dihydro-1λ^6,5-benzothiazepin-4-one] | 43400 | 2420 | 187 | 2070
CC1(c2nnc(-c3ccc4c(c3)N(Cc3ccc(-c5ccc(C(F)(F)F)cn5)cc3)C(=O)[C@@H](N)CS4(=O)=O)o2)COC1 [Example 150, (3R)-3-amino-7-[5-(3-methyloxetan-3-yl)-1,3,4-oxadiazol-2-yl]-1,1-dioxo-5-[[4-[5-(trifluoromethyl)-2-pyridyl]phenyl]methyl]-2,3-dihydro-1λ^6,5-benzothiazepin-4-one] | > 19800 | 9910 | 35 | > 10000
CC(C)(c1nnc(-c2ccc3c(c2)N(Cc2ccc(-c4noc(C5CC5)n4)cc2)C(=O)[C@@H](N)CS3(=O)=O)o1)C(F)(F)F [Example 167, (3R)-3-amino-5-[[4-(5-cyclopropyl-1,2,4-oxadiazol-3-yl)phenyl]methyl]-1,1-dioxo-7-[5-(2,2,2-trifluoro-1,1-dimethyl-ethyl)-1,3,4-oxadiazol-2-yl]-2,3-dihydro-1λ^6,5-benzothiazepin-4-one] | > 62500 | 924 | 279 | 635
N[C@H]1CS(=O)(=O)c2ccc(-c3nnc(N4CCC(F)(F)CC4)o3)cc2N(Cc2ccc(-c3nc(C(F)(F)F)no3)cc2)C1=O [Example 161, (3R)-3-amino-7-[5-(4,4-difluoro-1-piperidyl)-1,3,4-oxadiazol-2-yl]-1,1-dioxo-5-[[4-[3-(trifluoromethyl)-1,2,4-oxadiazol-5-yl]phenyl]methyl]-2,3-dihydro-1λ^6,5-benzothiazepin-4-one] | > 62500 | 1920 | 150 | 3210
COc1ccc(-c2ccc(CN3C(=O)[C@@H](N)CS(=O)(=O)c4ccc(-c5nnc(N6CCOC(F)(F)C6)o5)cc43)cc2)cc1 [Example 79, (3R)-3-amino-7-[5-(2,2-difluoromorpholin-4-yl)-1,3,4-oxadiazol-2-yl]-5-[[4-(4-methoxyphenyl)phenyl]methyl]-1,1-dioxo-2,3-dihydro-1λ^6,5-benzothiazepin-4-one] | 39700 | 880 | 236 | 2450
CC(C)(C)c1nc(-c2cc3c(cc2F)S(=O)(=O)C[C@H](N)C(=O)N3Cc2ccc(-c3ccc(CO)cc3)nc2)no1 [Example 7, (3R)-3-amino-7-(5-tert-butyl-1,2,4-oxadiazol-3-yl)-8-fluoro-5-[[6-[4-(hydroxymethyl)phenyl]-3-pyridyl]methyl]-1,1-dioxo-2,3-dihydro-1λ^6,5-benzothiazepin-4-one] | > 62500 | 1400 | 38 | > 10000
N[C@H]1CS(=O)(=O)c2ccc(-c3nnc(N4CCC(F)(F)CC4)o3)cc2N(Cc2ccc(-c3nnc(C(F)(F)F)o3)cc2)C1=O [Example 71, (3R)-3-amino-7-[5-(4,4-difluoro-1-piperidyl)-1,3,4-oxadiazol-2-yl]-1,1-dioxo-5-[[4-[5-(trifluoromethyl)-1,3,4-oxadiazol-2-yl]phenyl]methyl]-2,3-dihydro-1λ^6,5-benzothiazepin-4-one] | 24700 | 895 | 111 | 3260
Cn1ccc(-c2ccc(CN3C(=O)[C@@H](N)CS(=O)(=O)c4ccc(-c5nnc(C(C)(C)C)o5)cc43)cc2)n1 [Example 21] | 16800 | 2310 | 53 | 8010
COCCN1CC(c2nnc(-c3ccc4c(c3)N(Cc3ccc(-c5noc(C(F)(F)F)n5)cc3)C(=O)[C@@H](N)CS4(=O)=O)o2)CC(F)(F)C1 (stereo partly drawn) [Example 182, (3R)-3-amino-7-[5-[5,5-difluoro-1-(2-methoxyethyl)-3-piperidyl]-1,3,4-oxadiazol-2-yl]-1,1-dioxo-5-[[4-[5-(trifluoromethyl)-1,2,4-oxadiazol-3-yl]phenyl]methyl]-2,3-dihydro-1λ^6,5-benzothiazepin-4-one] | > 62500 | 2000 | 149 | 3260
CC(N)(c1nnc(-c2ccc3c(c2)N(Cc2ccc(-c4noc(CC(F)(F)F)n4)cc2)C(=O)[C@@H](N)CS3(=O)=O)o1)C(F)(F)F (stereo partly drawn) [Example 33, (3R)-3-amino-7-[5-(1-amino-2,2,2-trifluoro-1-methyl-ethyl)-1,3,4-oxadiazol-2-yl]-1,1-dioxo-5-[[4-[5-(2,2,2-trifluoroethyl)-1,2,4-oxadiazol-3-yl]phenyl]methyl]-2,3-dihydro-1λ^6,5-benzothiazepin-4-one] | 23800 | 2640 | 24 | > 10000
